From article PMC10141580, “Cyclic Dichalcogenides Extend the Reach of Bioreductive Prodrugs to Harness Thiol/Disulfide Oxidoreductases: Applications to seco-Duocarmycins Targeting the Thioredoxin System” (ACS Central Science, 2023)
“And” between values parts separate entries of the source, which are not always exact repeats. Identical values can stand only once. Like-named read-outs stand apart in the source and are kept apart here.

Test system: panel of 140 standard cancer cell lines
Assay: ProliFiler-140 cancer cell line screen (CellTiterGlo, 72 h)
Format: cell-based
Method: Incubations were performed for 72 h before automated viability readout with CellTiterGlo (Figure 8).
End of Figure S11 (part 5 of 5): ProliFiler-140 cancer cell line screening for cytotoxicity of the prodrugs.
8-data-point dose response curves from CellTiter-Glo® viability readout.
ProliFiler-140 cell line panel part V

COc1cc2cc(C(=O)N3C[C@@H](CCl)c4c3cc(OC(=O)N(CCC(=O)N3CCN(C)CC3)[C@H]3CCSSC3)c3ccccc43)[nH]c2c(OC)c1OC [P-SS60-CBI-TMI]
Reductive Activation Index (MKN-1 (Stomach)): 7.3 | IC50 (MKN-1 (Stomach), read-out: IC50 [M] (ProliFiler-140)): 2.1e-07 M | Reductive Activation Index (MKN-45 (Stomach)): 5.36 | IC50 (MKN-45 (Stomach), read-out: IC50 [M] (ProliFiler-140)): 9.08e-08 M and 9.1e-08 M | IC50 (MOLM-13 (Blood), read-out: IC50 [M] (ProliFiler-140)): 9.1e-09 M and 9.12e-09 M | IC50 (MOLT-4 (Blood), read-out: IC50 [M] (ProliFiler-140)): 1.3e-08 M and 1.29e-08 M | IC50 (MOLT-4, read-out: IC50): 1.3e-08 M | IC50 (MV4-11 (Blood), read-out: IC50 [M] (ProliFiler-140)): 2.8e-09 M and 2.76e-09 M | Reductive Activation Index (Mia PaCA 2 (Pancreas)): 5.48 | IC50 (Mia PaCA 2 (Pancreas), read-out: IC50 [M] (ProliFiler-140)): 6.84e-08 M and 6.8e-08 M | Reductive Activation Index (NALM-6 (Blood)): 5.7 | IC50 (NALM-6 (Blood), read-out: IC50 [M] (ProliFiler-140)): 9.79e-09 M and 9.8e-09 M | Reductive Activation Index (NCI-H82 (Lung)): 5.0 | IC50 (NCI-H82 (Lung), read-out: IC50 [M] (ProliFiler-140)): 1.5e-07 M and 1.49e-07 M | IC50 (NCI-H292 (Lung), read-out: IC50 [M] (ProliFiler-140)): 4.8e-08 M and 4.84e-08 M | Reductive Activation Index (NCI-H441 (Lung)): 5.40 | IC50 (NCI-H441 (Lung), read-out: IC50 [M] (ProliFiler-140)): 5.44e-08 M and 5.4e-08 M | Reductive Activation Index (NCI-H838 (Lung)): 6.2 | IC50 (NCI-H838 (Lung), read-out: IC50 [M] (ProliFiler-140)): 1.2e-07 M and 1.21e-07 M | Reductive Activation Index (NCI-H1048 (Lung)): 7.4 | IC50 (NCI-H1048 (Lung), read-out: IC50 [M] (ProliFiler-140)): 8e-09 M and 8.01e-09 M | IC50 (NCI-H1437 (Lung), read-out: IC50 [M] (ProliFiler-140)): 5.21e-08 M and 5.2e-08 M | Reductive Activation Index (NCI-H1563 (Lung)): 8.6 | IC50 (NCI-H1563 (Lung), read-out: IC50 [M] (ProliFiler-140)): 2e-07 M and 1.97e-07 M | Reductive Activation Index (NCI-H1573 (Lung)): 6.1 | IC50 (NCI-H1573 (Lung), read-out: IC50 [M] (ProliFiler-140)): 1.8e-07 M and 1.76e-07 M | IC50 (NCI-H1581 (Lung), read-out: IC50 [M] (ProliFiler-140)): 4.23e-08 M and 4.2e-08 M | Reductive Activation Index (NCI-H1703 (Lung)): 6.7 | IC50 (NCI-H1703 (Lung), read-out: IC50 [M] (ProliFiler-140)): 1.2e-07 M and 1.21e-07 M | Reductive Activation Index (NCI-H1838 (Lung)): 9.6 | IC50 (NCI-H1838 (Lung), read-out: IC50 [M] (ProliFiler-140)): 8.5e-08 M and 8.53e-08 M | IC50 (NCI-H2009 (Lung), read-out: IC50 [M] (ProliFiler-140)): 6.17e-08 M and 6.2e-08 M | IC50 (NCI-H2110 (Lung), read-out: IC50 [M] (ProliFiler-140)): 2.7e-08 M and 2.67e-08 M | IC50 (NCI-H2286 (Lung), read-out: IC50 [M] (ProliFiler-140)): 1.9e-08 M and 1.91e-08 M | Reductive Activation Index (NCI-N87 (Stomach)): 8.1 | IC50 (NCI-N87 (Stomach), read-out: IC50 [M] (ProliFiler-140)): 1.4e-07 M and 1.41e-07 M | IC50 (OCI-AML3 (Blood), read-out: IC50 [M] (ProliFiler-140)): 3.3e-08 M and 3.29e-08 M | Reductive Activation Index (OCI-AML5 (Blood)): 3.9 and 3.93 | IC50 (OCI-AML5 (Blood), read-out: IC50 [M] (ProliFiler-140)): 8.6e-09 M and 8.62e-09 M | Reductive Activation Index (OCI-LY19 (Blood)): 3.74 | IC50 (OCI-LY19 (Blood), read-out: IC50 [M] (ProliFiler-140)): 4.11e-09 M and 4.1e-09 M | Reductive Activation Index (OPM-2 (Blood)): 5.41 | IC50 (OPM-2 (Blood), read-out: IC50 [M] (ProliFiler-140)): 1.22e-07 M and 1.2e-07 M | Reductive Activation Index (OV56 (Ovary)): 3.10 | IC50 (OV56 (Ovary), read-out: IC50 [M] (ProliFiler-140)): 6.51e-08 M and 6.5e-08 M | Reductive Activation Index (OVCAR-3 (Ovary)): 8.7 | IC50 (OVCAR-3 (Ovary), read-out: IC50 [M] (ProliFiler-140)): 1.2e-07 M and 1.17e-07 M | IC50 (OVCAR-3, read-out: IC50): 1.2e-07 M | Reductive Activation Index (OVK18 (Ovary)): 4.66 | IC50 (OVK18 (Ovary), read-out: IC50 [M] (ProliFiler-140)): 4.29e-08 M and 4.3e-08 M | IC50 (P31/FUJ (Blood), read-out: IC50 [M] (ProliFiler-140)): 3.7e-08 M and 3.66e-08 M | Reductive Activation Index (PANC-1 (Pancreas)): 5.4 | IC50 (PANC-1 (Pancreas), read-out: IC50 [M] (ProliFiler-140)): 2.5e-07 M and 2.53e-07 M | IC50 (PC3 (Prostate), read-out: IC50 [M] (ProliFiler-140)): 5.8e-08 M | IC50 (PC3, read-out: IC50): 5.8e-08 M | IC50 (PC-9 (Lung), read-out: IC50 [M] (ProliFiler-140)): 1.7e-08 M | Reductive Activation Index (RERF-LC-Ad2 (Lung)): 4.2 and 4.21 | IC50 (RERF-LC-Ad2 (Lung), read-out: IC50 [M] (ProliFiler-140)): 1.9e-07 M and 1.86e-07 M | IC50 (RERF-LC-MS (Lung), read-out: IC50 [M] (ProliFiler-140)): 6.44e-08 M and 6.4e-08 M | IC50 (RKO (Colon), read-out: IC50 [M] (ProliFiler-140)): 4.51e-08 M and 4.5e-08 M | Reductive Activation Index (RL95-2 (Endometrium)): 4.84 | IC50 (RL95-2 (Endometrium), read-out: IC50 [M] (ProliFiler-140)): 1.54e-07 M and 1.5e-07 M | IC50 (RPMI 8226 (Blood), read-out: IC50 [M] (ProliFiler-140)): 3.86e-08 M and 3.9e-08 M | IC50 (RPMI 8226, read-out: IC50): 3.9e-08 M | IC50 (SCH (Stomach), read-out: IC50 [M] (ProliFiler-140)): 5.2e-08 M and 5.16e-08 M | Reductive Activation Index (SCLC-21H (Lung)): 4.91 | IC50 (SCLC-21H (Lung), read-out: IC50 [M] (ProliFiler-140)): 3.21e-08 M and 3.2e-08 M | Reductive Activation Index (SJSA-1 (Bone)): 15.99 | IC50 (SJSA-1 (Bone), read-out: IC50 [M] (ProliFiler-140)): 2.37e-08 M and 2.4e-08 M | IC50 (SK-BR-3 (Breast), read-out: IC50 [M] (ProliFiler-140)): 7.4e-08 M and 7.39e-08 M | IC50 (SK-ES-1 (Bone), read-out: IC50 [M] (ProliFiler-140)): 5.66e-09 M and 5.7e-09 M | IC50 (SK-LU-1 (Lung), read-out: IC50 [M] (ProliFiler-140)): 2.7e-08 M | Reductive Activation Index (SK-MEL-3 (Skin)): 5.8 | IC50 (SK-MEL-3 (Skin), read-out: IC50 [M] (ProliFiler-140)): 1.8e-07 M and 1.77e-07 M | Reductive Activation Index (SK-N-FI (Brain)): 5.68 | IC50 (SK-N-FI (Brain), read-out: IC50 [M] (ProliFiler-140)): 1.2e-07 M | IC50 (SK-N-MC (Brain), read-out: IC50 [M] (ProliFiler-140)): 2.7e-09 M | Reductive Activation Index (SK-N-SH (Brain)): 5.1 and 5.09 | IC50 (SK-N-SH (Brain), read-out: IC50 [M] (ProliFiler-140)): 1.5e-07 M and 1.46e-07 M | IC50 (SK-OV3 (Ovary), read-out: IC50 [M] (ProliFiler-140)): 6.17e-08 M and 6.2e-08 M | IC50 (SK-OV3, read-out: IC50): 6.2e-08 M | Reductive Activation Index (SNU840 (Ovary)): 1.83 | IC50 (SNU840 (Ovary), read-out: IC50 [M] (ProliFiler-140)): 3.82e-08 M and 3.8e-08 M | IC50 (SNU-1 (Stomach), read-out: IC50 [M] (ProliFiler-140)): 3e-08 M | IC50 (SNU-16 (Stomach), read-out: IC50 [M] (ProliFiler-140)): 1.23e-07 M and 1.2e-07 M | Reductive Activation Index (SNU-216 (Stomach)): 6.77 and 6.8 | IC50 (SNU-216 (Stomach), read-out: IC50 [M] (ProliFiler-140)): 2.72e-07 M and 2.7e-07 M | Reductive Activation Index (SU-DHL-5 (Blood)): 6.4 | IC50 (SU-DHL-5 (Blood), read-out: IC50 [M] (ProliFiler-140)): 7.8e-09 M and 7.78e-09 M | Reductive Activation Index (SW480 (Colon)): 5.10 | IC50 (SW480 (Colon), read-out: IC50 [M] (ProliFiler-140)): 6.5e-08 M | Reductive Activation Index (SW620 (Colon)): 5.01 | IC50 (SW620 (Colon), read-out: IC50 [M] (ProliFiler-140)): 1.4e-07 M | IC50 (SW620, read-out: IC50): 1.4e-07 M | Reductive Activation Index (SW948 (Colon)): 5.26 | IC50 (SW948 (Colon), read-out: IC50 [M] (ProliFiler-140)): 1.29e-07 M and 1.3e-07 M | IC50 (SW-1783 (Brain), read-out: IC50 [M] (ProliFiler-140)): 6.68e-08 M and 6.7e-08 M | Reductive Activation Index (Saos-2 EC (Bone)): 6.02 | IC50 (Saos-2 EC (Bone), read-out: IC50 [M] (ProliFiler-140)): 3.88e-08 M and 3.9e-08 M | Reductive Activation Index (SiHa (Ovary)): 5.51 | IC50 (SiHa (Ovary), read-out: IC50 [M] (ProliFiler-140)): 1.11e-07 M and 1.1e-07 M | Reductive Activation Index (T84 (Colon)): 5.12 and 5.1 | IC50 (T84 (Colon), read-out: IC50 [M] (ProliFiler-140)): 1.77e-07 M and 1.8e-07 M | IC50 (T98G (Brain), read-out: IC50 [M] (ProliFiler-140)): 8.64e-08 M and 8.6e-08 M | Reductive Activation Index (T-47D (Breast)): 4.5 | IC50 (T-47D (Breast), read-out: IC50 [M] (ProliFiler-140)): 2.3e-07 M and 2.31e-07 M | IC50 (T-47D, read-out: IC50): 2.3e-07 M | Reductive Activation Index (U2OS (Bone)): 5.36 | IC50 (U2OS (Bone), read-out: IC50 [M] (ProliFiler-140)): 2.44e-08 M and 2.4e-08 M | Reductive Activation Index (U87MG (Brain)): 5.4 | IC50 (U87MG (Brain), read-out: IC50 [M] (ProliFiler-140)): 2.3e-07 M and 2.25e-07 M | Reductive Activation Index (U118MG (Brain)): 2.81 | IC50 (U118MG (Brain), read-out: IC50 [M] (ProliFiler-140)): 1.4e-07 M | Reductive Activation Index (U251MG (Brain)): 11 | IC50 (U251MG (Brain), read-out: IC50 [M] (ProliFiler-140)): 1.9e-07 M and 1.88e-07 M | IC50 (U-266 (Blood), read-out: IC50 [M] (ProliFiler-140)): 2.23e-08 M and 2.2e-08 M | Reductive Activation Index (U-937 (Blood)): 4.50 | IC50 (U-937 (Blood), read-out: IC50 [M] (ProliFiler-140)): 1.64e-08 M and 1.6e-08 M | Reductive Activation Index (ZR-75-1 (Breast)): 6.4 | IC50 (ZR-75-1 (Breast), read-out: IC50 [M] (ProliFiler-140)): 2.22e-07 M and 2.2e-07 M | IC50 (read-out: IC50 [M] (ProliFiler-140)): 1.74e-08 M and 1.7e-08 M
